Experimental data from the NIST ThermoML archive (doi:10.1016/j.jct.2009.06.022).
Numbers after ± are expanded uncertainties.

What was measured:
[1] = molar enthalpy of vaporization or sublimation; details: 298.15 K; Crystal; Static calorimetry
[2] = Crystal; DTA
[3] = Molar enthalpy of transition or fusion; details: Crystal; DSC

## O=c1cc(-c2ccccc2)oc2ccccc12 [flavone]
[1]
  molar enthalpy: 25.9 ± 0.813 kcal/mol
[2]
  Normal melting temperature: 96.74 ± 0.44 °C
[3]
  Molar enthalpy of transition or fusion: 4.86 ± 0.122 kcal/mol

## O=C1CC(c2ccccc2)Oc2ccccc21 (stereo unspecified) [2,3-dihydroflavone]
[1]
  molar enthalpy: 25.6 ± 1.1 kcal/mol
[2]
  Normal melting temperature: 76.34 ± 0.44 °C
[3]
  Molar enthalpy of transition or fusion: 5.03 ± 0.139 kcal/mol
